Where only a bound is given, the exact number is not on record here.

The target in one test is T1, Interstitial collagenase (Homo sapiens, UniProt P03956).
T1 sequence (P03956 whole entry): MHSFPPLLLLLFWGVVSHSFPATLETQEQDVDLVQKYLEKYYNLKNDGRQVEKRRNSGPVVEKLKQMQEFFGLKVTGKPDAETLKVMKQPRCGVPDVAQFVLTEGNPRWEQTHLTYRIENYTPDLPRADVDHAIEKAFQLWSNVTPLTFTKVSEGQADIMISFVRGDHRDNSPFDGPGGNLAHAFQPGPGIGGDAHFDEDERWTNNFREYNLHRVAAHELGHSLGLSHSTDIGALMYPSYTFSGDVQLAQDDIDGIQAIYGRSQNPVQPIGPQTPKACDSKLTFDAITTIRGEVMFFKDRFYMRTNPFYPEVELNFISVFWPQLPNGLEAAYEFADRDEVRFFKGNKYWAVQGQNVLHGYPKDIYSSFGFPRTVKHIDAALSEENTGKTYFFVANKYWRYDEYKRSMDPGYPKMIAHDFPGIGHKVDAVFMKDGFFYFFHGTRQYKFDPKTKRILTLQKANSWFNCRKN
As to the kind of experiment: Inhibition of human recombinant MMP1 catalytic domain using Dnp-Pro-beta-cyclohexyl-Ala-Gly-Cys(Me)-His-Lys-(Nma)-NH2 as substrate preincubated with enzyme for 30 mins prior to substrate addition monitored for 60 mins by fluorometric assay.

The next test deals with Collagenase 3 (Homo sapiens, UniProt P45452). As to the kind of experiment: Inhibition of MMP13 (unknown origin).
Test [1] addresses Macrophage metalloelastase (Homo sapiens, UniProt P39900). As to the kind of experiment: Inhibition of MMP12 (unknown origin).
The target in a further test is Stromelysin-1 (Homo sapiens, UniProt P08254). As to the kind of experiment: Inhibition of MMP3 (unknown origin).
Chain of Stromelysin-1 (P08254 whole entry): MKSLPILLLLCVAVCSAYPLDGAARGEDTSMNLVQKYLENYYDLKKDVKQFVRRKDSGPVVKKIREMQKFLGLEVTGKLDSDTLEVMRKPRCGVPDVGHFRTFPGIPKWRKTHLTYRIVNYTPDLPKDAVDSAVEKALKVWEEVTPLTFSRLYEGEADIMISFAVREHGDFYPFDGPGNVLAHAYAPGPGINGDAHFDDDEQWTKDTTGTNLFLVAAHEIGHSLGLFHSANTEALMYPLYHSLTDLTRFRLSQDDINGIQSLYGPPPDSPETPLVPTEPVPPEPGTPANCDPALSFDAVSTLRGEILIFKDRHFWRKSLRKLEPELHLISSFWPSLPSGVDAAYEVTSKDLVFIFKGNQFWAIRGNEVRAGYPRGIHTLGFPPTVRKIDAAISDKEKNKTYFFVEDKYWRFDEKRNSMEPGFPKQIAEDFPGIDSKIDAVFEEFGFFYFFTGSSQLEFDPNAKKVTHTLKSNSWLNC
The target of test [2] is Matrix metalloproteinase-9 (Homo sapiens, UniProt P14780). Nature of the test: Inhibition of MMP9 (unknown origin).
Chain of Matrix metalloproteinase-9 (P14780 whole entry): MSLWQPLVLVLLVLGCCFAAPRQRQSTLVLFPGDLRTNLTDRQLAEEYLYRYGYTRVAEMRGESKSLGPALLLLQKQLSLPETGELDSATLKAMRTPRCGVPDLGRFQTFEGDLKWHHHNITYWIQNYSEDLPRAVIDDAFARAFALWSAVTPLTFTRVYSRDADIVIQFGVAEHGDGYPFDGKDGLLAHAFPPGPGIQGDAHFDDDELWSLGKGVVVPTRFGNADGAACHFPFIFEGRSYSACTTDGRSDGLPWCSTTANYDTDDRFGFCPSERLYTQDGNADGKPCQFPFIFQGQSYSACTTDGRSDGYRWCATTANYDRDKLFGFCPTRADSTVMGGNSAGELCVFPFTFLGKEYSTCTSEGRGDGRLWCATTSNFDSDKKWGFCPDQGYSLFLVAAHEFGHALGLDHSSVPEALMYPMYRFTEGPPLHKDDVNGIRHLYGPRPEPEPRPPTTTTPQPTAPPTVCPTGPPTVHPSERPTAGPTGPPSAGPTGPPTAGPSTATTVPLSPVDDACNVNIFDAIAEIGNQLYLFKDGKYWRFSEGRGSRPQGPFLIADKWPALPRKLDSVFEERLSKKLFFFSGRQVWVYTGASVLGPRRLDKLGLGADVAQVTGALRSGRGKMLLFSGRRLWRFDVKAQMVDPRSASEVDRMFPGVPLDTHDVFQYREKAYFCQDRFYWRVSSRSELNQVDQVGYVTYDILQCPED
Test [3] has as its target 72 kDa type IV collagenase (Homo sapiens, UniProt P08253). Nature of the test: Inhibition of MMP2 (unknown origin).

Chain of Macrophage metalloelastase (P39900 whole entry): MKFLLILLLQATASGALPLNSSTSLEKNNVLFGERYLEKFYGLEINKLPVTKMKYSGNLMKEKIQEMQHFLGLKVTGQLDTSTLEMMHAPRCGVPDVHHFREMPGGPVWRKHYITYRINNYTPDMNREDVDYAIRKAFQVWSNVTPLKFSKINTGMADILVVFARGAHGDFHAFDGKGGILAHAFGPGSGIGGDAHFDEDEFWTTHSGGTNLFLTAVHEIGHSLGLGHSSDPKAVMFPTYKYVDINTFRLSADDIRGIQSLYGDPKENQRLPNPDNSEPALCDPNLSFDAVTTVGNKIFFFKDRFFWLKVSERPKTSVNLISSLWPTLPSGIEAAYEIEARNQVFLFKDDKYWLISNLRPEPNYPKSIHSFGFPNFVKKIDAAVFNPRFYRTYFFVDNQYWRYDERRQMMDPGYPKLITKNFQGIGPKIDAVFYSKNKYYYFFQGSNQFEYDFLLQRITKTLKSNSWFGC
Chain of 72 kDa type IV collagenase (P08253 whole entry): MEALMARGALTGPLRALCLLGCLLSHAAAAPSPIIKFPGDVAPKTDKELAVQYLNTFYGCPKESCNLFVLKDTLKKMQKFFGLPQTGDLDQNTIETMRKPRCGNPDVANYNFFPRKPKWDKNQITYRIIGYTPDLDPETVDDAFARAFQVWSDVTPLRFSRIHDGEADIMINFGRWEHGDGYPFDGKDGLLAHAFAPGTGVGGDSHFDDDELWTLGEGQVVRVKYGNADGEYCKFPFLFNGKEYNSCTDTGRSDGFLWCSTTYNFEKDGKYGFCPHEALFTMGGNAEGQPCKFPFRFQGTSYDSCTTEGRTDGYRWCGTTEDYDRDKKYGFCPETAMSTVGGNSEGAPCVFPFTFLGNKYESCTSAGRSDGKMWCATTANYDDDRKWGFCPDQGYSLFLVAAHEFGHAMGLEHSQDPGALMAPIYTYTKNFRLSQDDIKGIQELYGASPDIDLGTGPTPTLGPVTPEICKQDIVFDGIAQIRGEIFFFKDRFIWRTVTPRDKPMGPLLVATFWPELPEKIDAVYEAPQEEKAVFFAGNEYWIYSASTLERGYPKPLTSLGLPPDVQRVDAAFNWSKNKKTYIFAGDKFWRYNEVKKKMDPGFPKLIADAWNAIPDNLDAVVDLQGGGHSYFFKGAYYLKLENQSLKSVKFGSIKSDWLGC

For the molecule `C=CCOC(=O)C(Cc1ccc(OC)c(OC)c1)OC(=O)/C=C/c1ccc(OCc2ccccc2)cc1` (stereo not given), the IC50 – broadly, the concentration at which inhibition is half-maximal – at Interstitial collagenase is > 100 µM.

For `C=CCOC(=O)C(Cc1ccc(OC)c(OC)c1)OC(=O)/C=C/c1ccc(Br)cc1` (stereo not given), at Interstitial collagenase, the IC50 was > 100 µM. For `COc1ccc(CC(OC(=O)/C=C/c2ccc(OCc3ccccc3)cc2)C(=O)O)cc1OC` (stereo not given), on Interstitial collagenase, the IC50 stood at 8.9 µM. On to `COc1ccc(CC(OC(=O)/C=C/c2ccc(C)cc2)C(=O)O)cc1OC` (stereo not given), for which the IC50 on Interstitial collagenase was > 100 µM. Still for that read-out and setting: then `COc1ccc(CC(OC(=O)/C=C/c2ccc(OCc3ccccc3)cc2)C(=O)NO)cc1OC` (stereo not given), with 3.6 µM. Turning to `COc1ccc(CC(OC(=O)/C=C/c2ccc3ccccc3c2)C(=O)NO)cc1OC` (stereo not given), the half-inhibitory concentration (IC50) on Interstitial collagenase came out at 6.8 µM. The same measure, in the same setting: then `COc1ccc(CC(OC(=O)/C=C/c2ccc(C(F)(F)F)cc2)C(=O)O)cc1OC` (stereo not given), with 38.9 µM; and `COc1ccc(/C=C/C(=O)OC(Cc2ccc(OC)c(OC)c2)C(=O)O)cc1OC` (stereo not given), with > 100 µM. Regarding `COc1ccc(CC(OC(=O)/C=C/c2ccc3c(c2)OCC3)C(=O)O)cc1OC` (stereo not given), the IC50 on Interstitial collagenase was > 100 µM. On the same count and under the same terms, the same measure for `COc1ccc(CC(OC(=O)/C=C/c2ccc(O)c(O)c2)C(=O)O)cc1OC` (stereo not given): 13.7 µM.

Regarding `COc1ccc(C[C@@H](OC(=O)/C=C/c2ccc(OCc3ccccc3)c(OCc3ccccc3)c2)C(=O)O)cc1OC`, the half-inhibitory concentration (IC50) at Collagenase 3 turned out to be 4.5 µM; in test [1] it was 2.1 µM; at Stromelysin-1 it was 4 µM; in test [2] it was 6.7 µM; in test [3], 3.2 µM; on Interstitial collagenase, 0.4 µM. As to `COc1ccc(CC(OC(=O)/C=C/c2ccccc2F)C(=O)O)cc1OC` (stereo not given), at Interstitial collagenase, the IC50 was found to be 34.7 µM. On to `COc1ccc(CC(OC(=O)/C=C/c2ccc(OCc3ccccc3)c(OCc3ccccc3)c2)C(=O)NO)cc1OC` (stereo not given), for which, on Interstitial collagenase, the half-maximal inhibitory concentration (IC50) amounted to 4.2 µM.

Turning to `COc1ccc(CC(OC(=O)/C=C/c2ccc(F)cc2)C(=O)O)cc1OC` (stereo not given), the IC50 at Interstitial collagenase is 41.7 µM. Consider `COc1ccc(CC(OC(=O)/C=C/c2ccc(-c3ccccc3)cc2)C(=O)NO)cc1OC` (stereo not given), for which the IC50 on Interstitial collagenase came out at 5.5 µM. Take `COc1ccc(CC(OC(=O)/C=C/c2ccc(Cl)cc2)C(=O)O)cc1OC` (stereo not given): the IC50 at Interstitial collagenase is 42.6 µM. Turning to `COc1ccc(CC(OC(=O)/C=C/c2ccc3c(c2)OCC3)C(=O)NO)cc1OC` (stereo not given), the 50% inhibitory concentration (IC50) at Interstitial collagenase came out at 10.6 µM. Consider `COc1ccc(CC(OC(=O)/C=C/c2ccccc2)C(=O)O)cc1OC` (stereo not given), for which the IC50 at Interstitial collagenase amounted to 53.7 µM.

`COc1ccc(C[C@H](OC(=O)/C=C/c2ccc(OCc3ccccc3)c(OCc3ccccc3)c2)C(=O)O)cc1OC`: the half-inhibitory concentration (IC50) came to 5.4 µM on Collagenase 3; 2.3 µM in test [1]; 3.4 µM against Stromelysin-1; 6 µM in test [2]; 3 µM in test [3]; 0.8 µM at Interstitial collagenase.

In the case of `COc1ccc(CC(OC(=O)/C=C/c2ccc(-c3ccccc3)cc2)C(=O)O)cc1OC` (stereo not given), the half-maximal inhibitory concentration (IC50) on Interstitial collagenase was determined as 8.6 µM. `COc1ccc(CC(OC(=O)/C=C/c2ccc(Br)cc2)C(=O)O)cc1OC` (stereo not given): the concentration for half-maximal inhibition (IC50) on Interstitial collagenase turned out to be 10.7 µM.

With `C=CCOC(=O)C(Cc1ccc(OC)c(OC)c1)OC(=O)/C=C/c1ccc(C(F)(F)F)cc1` (stereo not given), the IC50 at Interstitial collagenase is > 100 µM. Same read-out and setting: then `COc1ccc(CC(OC(=O)/C=C/c2ccc3ccccc3c2)C(=O)O)cc1OC` (stereo not given), with > 100 µM; and `O=C(/C=C/c1ccc(O)c(O)c1)O[C@H](Cc1ccc(O)c(O)c1)C(=O)O` [ROSMARINIC ACID], with 5.6 µM.

As to `COc1ccc(/C=C/C(=O)OC(Cc2ccc(OC)c(OC)c2)C(=O)O)cc1` (stereo not given), the IC50 at Interstitial collagenase is > 100 µM.

For the molecule `C=CCOC(=O)C(Cc1ccc(OC)c(OC)c1)OC(=O)/C=C/c1ccc([N+](=O)[O-])cc1` (stereo not given), the IC50 on Interstitial collagenase is > 100 µM. For the molecule `COc1ccc(CC(OC(=O)/C=C/c2ccc([N+](=O)[O-])cc2)C(=O)O)cc1OC` (stereo not given), at Interstitial collagenase, the concentration for half-maximal inhibition (IC50) was found to be 38.5 µM. `COc1ccc(CC(OC(=O)/C=C/c2ccc(Br)cc2)C(=O)NO)cc1OC` (stereo not given): the half-maximal inhibitory concentration (IC50) on Interstitial collagenase turned out to be 7.6 µM. The same measure, in the same setting: then `COc1ccc(CC(OC(=O)/C=C/c2ccc(OCc3ccccc3)c(OCc3ccccc3)c2)C(=O)O)cc1OC` (stereo not given), with 2.5 µM; and `C=CCOC(=O)C(Cc1ccc(OC)c(OC)c1)OC(=O)/C=C/c1ccc(Cl)cc1` (stereo not given), with > 100 µM.

The values above are taken from ChEMBL document CHEMBL2331379, “Synthesis of derivatives of methyl rosmarinate and their inhibitory activities against matrix metalloproteinase-1 (MMP-1)” (Eur J Med Chem, 2013).
